According to patent US6380183B1, “Treatment of diseases involving cyst formation” (Scios, Inc., priority 1998, dated 2002):

Assays:
[1] = tested on: isolated working rat heart; conditions: isolated working rat heart model; cited from earlier work
human atrial strips = conditions: not antagonized by PK 11195; cited from earlier work
[2] = tested on: guinea pig heart preparation; conditions: Ro5-4864 effects reversed by PK 11195; cited from earlier work
human ADPKD cells = test: Promega Cell titer 96 MTT proliferation assay on human ADPKD cells; assay type: cell-based
Protocol: In this experiment, the effect of concentrations from […] to 10^−6 M of the known PTBR agonist, Ro5-4864 on the rate of proliferation of human autosomal dominant polycystic kidnay disease (ADPKD) cells was examined.
Epithelial cells from human ADPKD kidneys have been cultured from the domes of cysts and maintained in primary culture through several passages.
The rate of cell proliferation was determined using the Promega Cell titer 96 MTT Assay method. This assay is a modification of that described by Mosmann T 1983 J Immunol Meth. 65, 55. […] The relation between cell number and O.D. was linear, and r^2 was >0.98. To determine the effect of agonists on the rate of proliferation, approximately 4000 cells were seeded into individual chambers of a 96-well plate. The cells were incubated initially in DME/F12 medium supplemented only with penicillin, streptomycin, ITS and 1% FBS. After 24 hours,.the FBS was reduced to 0.002% (ITS deleted) to arrest growth. This small amount of serum was needed to potentiate cell attachment to the plastic surface. The human ADPKD cells were then cultured for 48 hours, after adding the cAMP (a stimulator of cell proliferation) at a concentration of 100 μM. A control and forskolin group were examined as well. Preliminary studies determined that growth was sustained over this entire interval.
Thereafter the effect of a range of concentrations from 10^−12 to 10^−6 M of the known PTBR agonist, Ro5-4864 on the rate of proliferation of […] pretreated with cAMP or not treated (baseline proliferation) was examined. The results are graphically illustrated in FIG. 6. Each data set shown in FIG. 6 is mean, and was obtained from six determinations. Accordingly, the results are highly statistically significant.

Langendorf rat heart = conditions: cited from earlier work
polycystic cpk mice = conditions: cited from earlier work

CCC(C)N(C)C(=O)c1cc2ccccc2c(-c2ccccc2Cl)n1 (centres unmarked) [PK 11195, 1-(2-chlorophenyl)-N-methyl-N-(1-methylpropyl)-3-isoquinoline carboxamide]
cardiac function [1]: depress cardiac function

CN1C(=O)CN=C(c2ccc(Cl)cc2)c2cc(Cl)ccc21 [Ro5-4864]
depressant effect on the contraction amplitude (negative inotropic effect) (human atrial strips): 20% | duration of intracellular action potential and contractility [2]: decreased | visual observation of the cells: growth arrest versus cell killing (human ADPKD cells; human ADPKD cells): arresting cell growth and not be killing the cells | basal cell proliferation (human ADPKD cells; human ADPKD cells not treated with cAMP (baseline), all concentrations examined, 10^-12 to 10^-6 M, MTT O.D., six determinations): blocked | cAMP stimulated cell proliferation (human ADPKD cells; human ADPKD cells pretreated with 100 μM cAMP, all concentrations examined, 10^-12 to 10^-6 M, MTT O.D., six determinations): blocked | heart rate and left ventricular contractility (Langendorf rat heart; isolated perfused Langendorf rat heart): without affecting | coronary flow (Langendorf rat heart; isolated perfused Langendorf rat heart, effect not antagonized by PK 11195): increase coronary flow | cardiac function [1]: depress cardiac function

O=C1CN=C(c2ccccc2Cl)c2cc([N+](=O)[O-])ccc2N1 [clonazepam]
duration of intracellular action potential and contractility [2]: ineffective

CN1C(=O)CN=C(c2ccccc2)c2cc(Cl)ccc21 [diazepam]
duration of intracellular action potential and contractility [2]: less effective | contractile force (Langendorf rat heart; Langendorf rat heart): increased contractile force

CC(=O)O[C@H]1C(=O)[C@@]2(C)[C@H]([C@H](OC(=O)c3ccccc3)[C@]3(O)C[C@H](OC(=O)[C@H](O)[C@@H](NC(=O)c4ccccc4)c4ccccc4)C(C)=C1C3(C)C)[C@]1(OC(C)=O)CO[C@@H]1C[C@@H]2O [taxol]
progression of PKD (polycystic cpk mice): inhibit the progression of PKD | survival (polycystic cpk mice): prolongs the survival
